{"source": "patent US6448204B1", "about": "“Herbicidal 2-aryloxy-4-methyl-6-pyrazol-1-yl-pyridines” (BASF Aktiengesellschaft, priority 1999, dated 2002)", "type_in_all_cases": "in vivo", "key": {"Setaria viridis (SETVI) [1]": {"system": "Setaria viridis (SETVI)", "experiment": "Post-emergence test", "conditions": "2-4 weeks after treatment", "procedure": "(§1) To evaluate their herbicidal activity, compounds according to the invention are tested using a representative range of plants:\n(§2) These acetone solutions are diluted with water and the resulting formulations applied at dosage levels equivalent of about 0.025 to 0.4 kg per hectare of test compound per pot. After spraying the plants are placed on greenhouse benches and are cared for in the usual manner, commensurate with conventional greenhouse practices. From 2 to 4 weeks after treatment, the seedling plants are examined and rated according to the rating system provided above."}, "[2]": {"system": "Digitaria sanguinalis (DIGSA)", "experiment": "Post-emergence test", "conditions": "2-4 weeks after treatment", "procedure": "as §1, §2"}, "Stellaria media (STEME) [3]": {"system": "Stellaria media (STEME)", "experiment": "Post-emergence test", "conditions": "2-4 weeks after treatment", "procedure": "as §1, §2"}, "[4]": {"system": "Cassia obtusifolia (CASOB)", "experiment": "Post-emergence test", "conditions": "2-4 weeks after treatment", "procedure": "as §1, §2"}, "Lamium purpureum (LAMPU)": {"system": "Lamium purpureum (LAMPU)", "experiment": "Post-emergence test", "conditions": "2-4 weeks after treatment", "procedure": "as §1, §2"}, "Galium aparine (GALAP)": {"system": "Galium aparine (GALAP)", "experiment": "Post-emergence test", "conditions": "2-4 weeks after treatment", "procedure": "as §1, §2"}, "[5]": {"system": "Echinochloa crus-galli (ECHCG)", "experiment": "Post-emergence test", "conditions": "2-4 weeks after treatment", "procedure": "as §1, §2"}, "[6]": {"system": "Ambrosia artemisifolia (AMBEL)", "experiment": "Post-emergence test", "conditions": "2-4 weeks after treatment", "procedure": "as §1, §2"}, "[7]": {"system": "Ipomoea hederacea (IPOHE)", "experiment": "Post-emergence test", "conditions": "2-4 weeks after treatment", "procedure": "as §1, §2"}, "[8]": {"system": "Lolium multiflorum (LOLMU)", "experiment": "Post-emergence test", "conditions": "2-4 weeks after treatment", "procedure": "as §1, §2"}, "[9]": {"system": "Alopecurus myosuroides (ALOMY)", "experiment": "Post-emergence test", "conditions": "2-4 weeks after treatment", "procedure": "as §1, §2"}, "[10]": {"system": "Matricaria inodora (MATIN)", "experiment": "Post-emergence test", "conditions": "2-4 weeks after treatment", "procedure": "as §1, §2"}, "[11]": {"system": "Abutilon theophrasti (ABUTH)", "experiment": "Post-emergence test", "conditions": "2-4 weeks after treatment", "procedure": "as §1, §2"}, "Setaria viridis (SETVI) [12]": {"system": "Setaria viridis (SETVI)", "experiment": "Pre-emergence test", "conditions": "3 weeks after treatment", "procedure": "(§3) To evaluate their herbicidal activity, compounds according to the invention are tested using a representative range of plants: […] The pre-emergence tests involve spraying a liquid formulation of the compound onto the soil in which the seeds of the plant species mentioned above has recently been sown. The soil used in the tests is a prepared horticultural loam. […] In these tests untreated sown soil are used as controls."}, "[13]": {"system": "Digitaria sanguinalis (DIGSA)", "experiment": "Pre-emergence test", "conditions": "3 weeks after treatment", "procedure": "as §3"}, "Stellaria media (STEME) [14]": {"system": "Stellaria media (STEME)", "experiment": "Pre-emergence test", "conditions": "3 weeks after treatment", "procedure": "as §3"}}, "data": [{"smiles": "Cc1cc(Oc2cc(C(F)(F)F)nn2C)nc(-n2ccc(C(F)(F)F)n2)c1", "note": "[Example 2, 4-methyl-2-(-3-trifluoromethyl-1H-prazol-1-yl)-6-(1-methyl-3-trifluoromethyl-pyrazol-5-yloxy)-pyridine]", "values": [{"measurement": "Rating SETVI (post-emergence application)", "setting": "Setaria viridis (SETVI) [1]; 0.025 kg/ha", "result": "6 (6 - Herbicidal effect)"}, {"measurement": "Rating SETVI (post-emergence application)", "setting": "Setaria viridis (SETVI) [1]; 0.100 kg/ha", "result": "8 (8 - Approaching complete kill)"}, {"measurement": "Rating SETVI (post-emergence application)", "setting": "Setaria viridis (SETVI) [1]; 0.400 kg/ha", "result": "9 (9 - Complete kill)"}, {"measurement": "Rating DIGSA (post-emergence application)", "setting": "[2]; 0.025 kg/ha", "result": "6 (6 - Herbicidal effect)"}, {"measurement": "Rating DIGSA (post-emergence application)", "setting": "[2]; 0.100 kg/ha", "result": "8 (8 - Approaching complete kill)"}, {"measurement": "Rating DIGSA (post-emergence application)", "setting": "[2]; 0.400 kg/ha", "result": "9 (9 - Complete kill)"}, {"measurement": "Rating STEME (post-emergence application)", "setting": "Stellaria media (STEME) [3]; 0.025 kg/ha", "result": "8 (8 - Approaching complete kill)"}, {"measurement": "Rating STEME (post-emergence application)", "setting": "Stellaria media (STEME) [3]; 0.100 kg/ha", "result": "9 (9 - Complete kill)"}, {"measurement": "Rating STEME (post-emergence application)", "setting": "Stellaria media (STEME) [3]; 0.400 kg/ha", "result": "9 (9 - Complete kill)"}, {"measurement": "Rating CASOB (post-emergence application)", "setting": "[4]; 0.025 kg/ha", "result": "9 (9 - Complete kill)"}, {"measurement": "Rating CASOB (post-emergence application)", "setting": "[4]; 0.100 kg/ha", "result": "9 (9 - Complete kill)"}, {"measurement": "Rating CASOB (post-emergence application)", "setting": "[4]; 0.400 kg/ha", "result": "9 (9 - Complete kill)"}, {"measurement": "Rating LAMPU (post-emergence application)", "setting": "Lamium purpureum (LAMPU); 0.025 kg/ha", "result": "8 (8 - Approaching complete kill)"}, {"measurement": "Rating LAMPU (post-emergence application)", "setting": "Lamium purpureum (LAMPU); 0.100 kg/ha", "result": "9 (9 - Complete kill)"}, {"measurement": "Rating LAMPU (post-emergence application)", "setting": "Lamium purpureum (LAMPU); 0.400 kg/ha", "result": "9 (9 - Complete kill)"}, {"measurement": "Rating GALAP (post-emergence application)", "setting": "Galium aparine (GALAP); 0.025 kg/ha", "result": "5 (5 - Definite injury)"}, {"measurement": "Rating GALAP (post-emergence application)", "setting": "Galium aparine (GALAP); 0.100 kg/ha", "result": "6 (6 - Herbicidal effect)"}, {"measurement": "Rating GALAP (post-emergence application)", "setting": "Galium aparine (GALAP); 0.400 kg/ha", "result": "8 (8 - Approaching complete kill)"}, {"measurement": "Rating ECHCG (post-emergence application)", "setting": "[5]; 0.025 kg/ha", "result": "6 (6 - Herbicidal effect)"}, {"measurement": "Rating ECHCG (post-emergence application)", "setting": "[5]; 0.100 kg/ha", "result": "9 (9 - Complete kill)"}, {"measurement": "Rating ECHCG (post-emergence application)", "setting": "[5]; 0.400 kg/ha", "result": "9 (9 - Complete kill)"}, {"measurement": "Rating AMBEL (post-emergence application)", "setting": "[6]; 0.025 kg/ha", "result": "6 (6 - Herbicidal effect)"}, {"measurement": "Rating AMBEL (post-emergence application)", "setting": "[6]; 0.100 kg/ha", "result": "8 (8 - Approaching complete kill)"}, {"measurement": "Rating AMBEL (post-emergence application)", "setting": "[6]; 0.400 kg/ha", "result": "8 (8 - Approaching complete kill)"}, {"measurement": "Rating IPOHE (post-emergence application)", "setting": "[7]; 0.025 kg/ha", "result": "9 (9 - Complete kill)"}, {"measurement": "Rating IPOHE (post-emergence application)", "setting": "[7]; 0.100 kg/ha", "result": "9 (9 - Complete kill)"}, {"measurement": "Rating IPOHE (post-emergence application)", "setting": "[7]; 0.400 kg/ha", "result": "9 (9 - Complete kill)"}, {"measurement": "Rating LOLMU (post-emergence application)", "setting": "[8]; 0.025 kg/ha", "result": "6 (6 - Herbicidal effect)"}, {"measurement": "Rating LOLMU (post-emergence application)", "setting": "[8]; 0.100 kg/ha", "result": "9 (9 - Complete kill)"}, {"measurement": "Rating LOLMU (post-emergence application)", "setting": "[8]; 0.400 kg/ha", "result": "9 (9 - Complete kill)"}, {"measurement": "Rating ALOMY (post-emergence application)", "setting": "[9]; 0.025 kg/ha", "result": "4 (4 - Injury)"}, {"measurement": "Rating ALOMY (post-emergence application)", "setting": "[9]; 0.100 kg/ha", "result": "8 (8 - Approaching complete kill)"}, {"measurement": "Rating ALOMY (post-emergence application)", "setting": "[9]; 0.400 kg/ha", "result": "8 (8 - Approaching complete kill)"}, {"measurement": "Rating MATIN (post-emergence application)", "setting": "[10]; 0.025 kg/ha", "result": "6 (6 - Herbicidal effect)"}, {"measurement": "Rating MATIN (post-emergence application)", "setting": "[10]; 0.100 kg/ha", "result": "8 (8 - Approaching complete kill)"}, {"measurement": "Rating MATIN (post-emergence application)", "setting": "[10]; 0.400 kg/ha", "result": "8 (8 - Approaching complete kill)"}, {"measurement": "Rating ABUTH (post-emergence application)", "setting": "[11]; 0.025 kg/ha", "result": "6 (6 - Herbicidal effect)"}, {"measurement": "Rating ABUTH (post-emergence application)", "setting": "[11]; 0.100 kg/ha", "result": "8 (8 - Approaching complete kill)"}, {"measurement": "Rating ABUTH (post-emergence application)", "setting": "[11]; 0.400 kg/ha", "result": "9 (9 - Complete kill)"}, {"measurement": "Assessment rating SETVI (pre-emergence application)", "setting": "Setaria viridis (SETVI) [12]; 0.013 kg/ha", "result": "9 (9 - Complete kill)"}, {"measurement": "Assessment rating SETVI (pre-emergence application)", "setting": "Setaria viridis (SETVI) [12]; 0.025 kg/ha", "result": "9 (9 - Complete kill)"}, {"measurement": "Assessment rating SETVI (pre-emergence application)", "setting": "Setaria viridis (SETVI) [12]; 0.100 kg/ha", "result": "9 (9 - Complete kill)"}, {"measurement": "Assessment rating SETVI (pre-emergence application)", "setting": "Setaria viridis (SETVI) [12]; 0.400 kg/ha", "result": "9 (9 - Complete kill)"}, {"measurement": "Assessment rating DIGSA (pre-emergence application)", "setting": "[13]; 0.013 kg/ha", "result": "9 (9 - Complete kill)"}, {"measurement": "Assessment rating DIGSA (pre-emergence application)", "setting": "[13]; 0.025 kg/ha", "result": "9 (9 - Complete kill)"}, {"measurement": "Assessment rating DIGSA (pre-emergence application)", "setting": "[13]; 0.100 kg/ha", "result": "9 (9 - Complete kill)"}, {"measurement": "Assessment rating DIGSA (pre-emergence application)", "setting": "[13]; 0.400 kg/ha", "result": "9 (9 - Complete kill)"}, {"measurement": "Assessment rating STEME (pre-emergence application)", "setting": "Stellaria media (STEME) [14]; 0.013 kg/ha", "result": "6 (6 - Herbicidal effect)"}, {"measurement": "Assessment rating STEME (pre-emergence application)", "setting": "Stellaria media (STEME) [14]; 0.025 kg/ha", "result": "9 (9 - Complete kill)"}, {"measurement": "Assessment rating STEME (pre-emergence application)", "setting": "Stellaria media (STEME) [14]; 0.100 kg/ha", "result": "9 (9 - Complete kill)"}, {"measurement": "Assessment rating STEME (pre-emergence application)", "setting": "Stellaria media (STEME) [14]; 0.400 kg/ha", "result": "9 (9 - Complete kill)"}]}]}
